Where “and” joins values, the source holds several entries; their conditions need not be identical. Equal values may be shown once. Toxic doses and inconclusive results are not listed.

The source of these data is PubChem BioAssay AID328 (DTP/NCI, 2004).

For this test, the system named is BDF1 mice, P388 leukemia ip, median survival T/C. In words: NCI In Vivo Anticancer Drug Screen. Data for tumor model P388 Leukemia (intraperitoneal) in B6D2F1 (BDF1) mice. The conditions noted are these: endpoint: median survival time, higher = longer survival. The method, boiled down: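 Compound-treated tumour-bearing mice were compared with vehicle-treated controls. Survival was recorded, and the value is the treated-group measurement divided by the control-group measurement (T/C).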

The mark [1] stands for this setting: dose: 12.5 mg/kg/injection, schedule: Q04DX003 (ip), vehicle: saline with Tween-80.
Setting [2] is: dose: 25.0 mg/kg/injection, schedule: Q04DX003 (ip), vehicle: saline with Tween-80.
Setting [3] is: dose: 50.0 mg/kg/injection, schedule: Q04DX003 (ip), vehicle: saline with Tween-80.
Where [4] appears, read: dose: 50.0 mg/kg/injection, schedule: Q01DX009 (ip), vehicle: saline with Tween-80.
[5] abbreviates: dose: 100.0 mg/kg/injection, schedule: Q01DX009 (ip), vehicle: saline with Tween-80.
The mark [6] stands for this setting: dose: 200.0 mg/kg/injection, schedule: Q01DX009 (ip), vehicle: saline with Tween-80.
Where [7] appears, read: dose: 100.0 mg/kg/injection, schedule: Q04DX003 (ip), vehicle: saline with Tween-80.
[8] abbreviates: dose: 200.0 mg/kg/injection, schedule: Q04DX003 (ip), vehicle: saline with Tween-80.
The mark [9] stands for this setting: dose: 400.0 mg/kg/injection, schedule: Q01DX009 (ip), vehicle: saline with Tween-80.
The mark [10] stands for this setting: dose: 400.0 mg/kg/injection, schedule: Q04DX003 (ip), vehicle: saline with Tween-80.

On to `FC(F)(F)c1nnn[n-]1.[Au+].c1ccc([PH+](c2ccccc2)c2ccccc2)cc1`, for which the T/C runs as follows: (dose: 25.0 mg/kg/injection, schedule: Q01DX001 (ip), vehicle: saline with Tween-80) 100 % of control; (dose: 50.0 mg/kg/injection, schedule: Q01DX001 (ip), vehicle: saline with Tween-80) 102 % of control.
For the compound `Cc1cc(CC(Cl)(C(F)(F)F)C(F)(F)F)cc(CC(Cl)(C(F)(F)F)C(F)(F)F)n1`, the T/C by setting is: (dose: 6.25 mg/kg/injection, schedule: Q01DX009 (ip), vehicle: saline with Tween-80) 110 % of control; (dose: 12.5 mg/kg/injection, schedule: Q01DX009 (ip), vehicle: saline with Tween-80) 105 % of control; under setting [1], 90 % of control; (dose: 25.0 mg/kg/injection, schedule: Q01DX009 (ip), vehicle: saline with Tween-80) 110 % of control; under setting [2], 90 % of control; under setting [3], 113 % of control.
Regarding `CN1C(=O)C23CC4=CC=CC(O)C4N2C(=O)C1(CO)SS3` (stereo not drawn), the T/C was 100 % of control (dose: 0.19 mg/kg/injection, schedule: Q01DX009 (ip), vehicle: saline with Tween-80); 100 % of control (dose: 0.38 mg/kg/injection, schedule: Q01DX009 (ip), vehicle: saline with Tween-80); 108 % of control and 109 % of control (dose: 0.75 mg/kg/injection, schedule: Q01DX009 (ip), vehicle: saline with Tween-80).
Consider `CNC(=O)c1ccc(NC(=O)Nc2cccc(C3=NCCN3)c2)cc1NC(=O)Nc1cccc(C2=NCCN2)c1`, for which, under “dose: 30.0 mg/kg/injection, schedule: Q01DX009 (ip), vehicle: saline with Tween-80”, the T/C is 162 % of control.
In the case of `CN1C(=O)C(C2Sc3ccccc3NC2=O)SC1=S` (stereo not drawn), the T/C reads like this: under setting [4], 102 % of control; under setting [5], 104 % of control; under setting [6], 99 % of control.
Taken in the same sequence, the figures for `Cc1cc(C)c2nc3c(c(C(O)C4CCCCN4)c2c1)CC/C3=C\c1ccc(Cl)cc1` (stereo not drawn) were 114 % of control, 100 % of control and 116 % of control.
For `COC(=O)C[C@](O)(CCC(C)C)C(=O)O[C@@H]1C(OC)=C[C@]23CCCN2CCc2cc4c(cc2[C@H]13)OCO4`, the T/C (dose: 0.06 mg/kg/injection, schedule: Q01DX010 (ip), vehicle: saline) is 118 % of control; the T/C (dose: 0.13 mg/kg/injection, schedule: Q01DX010 (ip), vehicle: saline) is 109 % of control; the T/C (dose: 0.25 mg/kg/injection, schedule: Q01DX010 (ip), vehicle: saline) was 118 % of control; the T/C (dose: 1.0 mg/kg/injection, schedule: Q01DX010 (ip), vehicle: saline) was 155 % of control; the T/C (dose: 2.0 mg/kg/injection, schedule: Q01DX010 (ip), vehicle: saline) is 180 % of control.
Consider `CCOC(=O)C(C)C(OCC)OCC` (stereo not drawn), for which the T/C runs as follows: under setting [5], 95 % of control; under setting [7], 100 % of control; under setting [6], 109 % of control; under setting [8], 91 % of control; under setting [9], 109 % of control; under setting [10], 100 % of control.
As to `CCOC(=O)/C(C#N)=C/c1c(-c2ccccc2)nn2ccccc12`, the T/C runs as follows: under setting [4], 96 % of control; under setting [5], 91 % of control.
`COc1ccc(/C=C/C(=O)c2ccc3c(c2)OCO3)cc1OC`: the T/C runs as follows: (dose: 44.0 mg/kg/injection, schedule: Q01DX009 (ip), vehicle: saline with Tween-80) 109 % of control; (dose: 44.0 mg/kg/injection, schedule: Q04DX003 (ip), vehicle: saline with Tween-80) 109 % of control; (dose: 66.0 mg/kg/injection, schedule: Q01DX009 (ip), vehicle: saline with Tween-80) 118 % of control; (dose: 66.0 mg/kg/injection, schedule: Q04DX003 (ip), vehicle: saline with Tween-80) 109 % of control; (dose: 88.0 mg/kg/injection, schedule: Q01DX009 (ip), vehicle: saline with Tween-80) 123 % of control; under setting [7], 109 % of control. Moreover, the T/C is, setting by setting: (dose: 150.0 mg/kg/injection, schedule: Q04DX003 (ip), vehicle: saline with Tween-80) 109 % of control; under setting [6], 157 % of control; under setting [9], 194 % of control.
Regarding `CC(C)NC(=O)c1ccccc1S(=O)c1ccccc1` (stereo not drawn), the T/C (dose: 100.0 mg/kg/injection, schedule: Q01DX001 (ip), vehicle: saline with Tween-80) is 100 % of control; the T/C (dose: 200.0 mg/kg/injection, schedule: Q01DX001 (ip), vehicle: saline with Tween-80) was 101 % of control; the T/C (dose: 400.0 mg/kg/injection, schedule: Q01DX001 (ip), vehicle: saline with Tween-80) was 92 % of control.
In the case of `COc1ccc(/C=C/NC=O)cc1`, the T/C (dose: 50.0 mg/kg/injection, schedule: Q04DX003 (ip), vehicle: other) was 105 % of control; the T/C (dose: 100.0 mg/kg/injection, schedule: Q04DX003 (ip), vehicle: other) is 112 % of control; the T/C (dose: 200.0 mg/kg/injection, schedule: Q04DX003 (ip), vehicle: other) is 112 % of control; the T/C (dose: 400.0 mg/kg/injection, schedule: Q04DX003 (ip), vehicle: other) was 91 % of control.
Regarding `CCOC(=O)c1ccc(NC(C)=O)c(CSC)c1`, the T/C was 107 % of control (dose: 50.0 mg/kg/injection, schedule: Q04DX002 (ip), vehicle: saline with Tween-80); 98 % of control (dose: 100.0 mg/kg/injection, schedule: Q04DX002 (ip), vehicle: saline with Tween-80); 99 % of control (dose: 200.0 mg/kg/injection, schedule: Q04DX002 (ip), vehicle: saline with Tween-80).
For the compound `O=C1C(N2CC2)=C(N2CC2)C(=O)C(N2CC2)=C1N1CC1`, the T/C was 232 % of control and 307 % of control (dose: 0.02 mg/kg/injection, schedule: Q01DX009 (ip), vehicle: saline); 201 % of control (dose: 0.04 mg/kg/injection, schedule: Q01DX009 (ip), vehicle: saline); 114 % of control (dose: 0.04 mg/kg/injection, schedule: Q04DX003 (ip), vehicle: saline with Tween-80); 118 % of control (dose: 0.06 mg/kg/injection, schedule: Q04DX003 (ip), vehicle: saline with Tween-80); 109 % of control (dose: 0.07 mg/kg/injection, schedule: Q04DX003 (ip), vehicle: saline with Tween-80); 109 % of control (dose: 0.08 mg/kg/injection, schedule: Q01DX009 (ip), vehicle: saline). The T/C was 200 % of control (dose: 0.11 mg/kg/injection, schedule: Q04DX003 (ip), vehicle: other); 185 % of control (dose: 0.15 mg/kg/injection, schedule: Q04DX003 (ip), vehicle: saline with Tween-80); 186 % of control (dose: 0.25 mg/kg/injection, schedule: Q04DX003 (ip), vehicle: other); 163 % of control (dose: 0.25 mg/kg/injection, schedule: Q04DX003 (ip), vehicle: saline with Tween-80); 150 % of control (dose: 6.6 micrograms/kg/injection, schedule: Q01DX009 (ip), vehicle: saline with Tween-80); 175 % of control (dose: 10.0 micrograms/kg/injection, schedule: Q01DX009 (ip), vehicle: saline with Tween-80). For the same compound, the T/C is, setting by setting: (dose: 20.0 micrograms/kg/injection, schedule: Q01DX009 (ip), vehicle: saline with Tween-80) 164 % of control; (dose: 30.0 micrograms/kg/injection, schedule: Q01DX009 (ip), vehicle: saline with Tween-80) 164 % of control; (dose: 31.3 micrograms/kg/injection, schedule: Q01DX009 (ip), vehicle: saline with Tween-80) 156 % of control; (dose: 45.0 micrograms/kg/injection, schedule: Q01DX009 (ip), vehicle: saline with Tween-80) 268 % of control; (dose: 62.5 micrograms/kg/injection, schedule: Q01DX009 (ip), vehicle: saline with Tween-80) 87 % of control; (dose: 125.0 micrograms/kg/injection, schedule: Q01DX009 (ip), vehicle: saline with Tween-80) 86 % of control.
On to `O=C(OCC(OC(=O)c1ccccc1)C(OC(=O)c1ccccc1)C(OC(=O)c1ccccc1)C(COC(=O)c1ccccc1)OC(=O)c1ccccc1)c1ccccc1` (stereo not drawn), for which the T/C (dose: 6.25 mg/kg/injection, schedule: Q04DX003 (ip), vehicle: saline with Tween-80) is 97 % of control; the T/C under setting [1] is 92 % of control; the T/C under setting [2] is 97 % of control; the T/C under setting [3] is 87 % of control.
As for `NC(=O)CN1C(=O)c2ccccc2C1=O`, the T/C under setting [5] was 100 % of control; the T/C under setting [7] is 95 % of control; the T/C under setting [6] was 90 % of control; the T/C under setting [8] is 100 % of control; the T/C under setting [9] was 100 % of control; the T/C under setting [10] is 100 % of control.
